According to US6489320B1, “5, 5-disubstituted-1, 5-dihydro-4, 1-benzoxazepin-2 (3H)-ones useful as HIV reverse transcriptase inhibitors” (Bristol-Myers Squibb Pharma Company, priority 1997, dated 2002):
Converted amounts (≈) assume the structure as drawn.

Tested on: HIV-1 (RF)
Assay: HIV RNA assay: microplate based compound evaluation in HIV-1 infected MT-2 cells
Type: cell-based
Conditions: Human immunodeficiency virus 1, MT2, 72 h; HIV-1 (RF) infected MT-2 cells, 3 days; virus dilutions selected to give this value (standardization of inoculum); read-out: IC90 value (concentration of compound required to reduce the HIV RNA level by 90%)
Description: Plasmid pDAB 72 containing both gag and pol sequences of BH10 (bp 113-1816) cloned into PTZ 19R was prepared according to Erickson-Viitanen et al. AIDS Research and Human Retroviruses 1989, 5, 577. The plasmid was linearized with Bam HI prior to the generation of in vitro RNA transcripts using the Riboprobe Gemini system II kit (Promega) with T7 RNA polymerase. Synthesized RNA was purified by treatment with RNase free DNAse (Promega), phenol-chloroform extraction, and ethanol precipitation. RNA transcripts were dissolved in water, and stored at −70° C. The concentration of RNA was determined from the A260.
Biotinylated capture probes were purified by HPLC after synthesis on an Applied Biosystems (Foster City, Calif.) DNA synthesizer by addition of biotin to the 5′ terminal end of the oligonucleotide, using the biotin-phosphoramidite reagent of Cocuzza, Tet. Lett. 1989, 30, 6287. […]
MT-2 and MT-4 cells were maintained in RPMI 1640 supplemented with 5% fetal calf serum (FCS) for MT-2 cells or 10% FCS for MT-4 cells, 2 mM L-glutamine and 50 μg/mL gentamycin, all from Gibco. […] Infectious titers of HIV-1(RF) stocks were 1-3×10^7 PFU (plaque forming units)/mL as measured by plaque assay on MT-2 cells (see below). […]

Nc1ccn([C@H]2CC[C@@H](CO)O2)c(=O)n1 [ddC, 2′,3′-dideoxycytidine]
IC90: 0.2 µg/mL (≈ 0.947 µM)
